Test: recombinant barcode read abundance after kanamycin selection (control-corrected) (log10(CPM+1)); higher = more efficient recombination; sequences stand for … in AGTGCAGAGAAAATCGGCCAGTTTTCTCTGCCTGCAGTCCGCATGCCGT…AGATTTATGCAGCGGACTGCCTTTCTCCCAAAGTGATAAACCGGACAGTATCATGGACCGGTTTTCCCGGTAATCCGTATTTGCAAGGTTGGTTTCACT; site = the 11-nt target
Procedure, shortened: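 A promoter, a target, a barcode and the first 104 bridge RNA bases under J23119 made up each oligo. Oligos were Gibson-cloned into a vector bearing the other 73 bp and a T7-inducible recombinase, then co-electroporated into E. coli with a donor plasmid and plated in duplicate on chloramphenicol/ampicillin LB agar (control) or chloramphenicol/ampicillin/kanamycin with 0.1 mM IPTG. Recombination efficiency is the averaged, control-corrected counts per million of recombinant-junction barcodes. Reported values are log10(CPM+1).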
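Further: IS621 recombinase and bridge RNA in Escherichia coli cells.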

Sequence | recombinant barcode read abundance (log10)
CTAATTACTTGGGTTCTAACCTGTTGCAC (site CTAATTACTGT) | 0.249
GAGGGGTCTTGGGTTCTAACCTGTTGCAC (site GAGGGGTCTGT) | 2.81
GGGGAAGCTTGGGTTCTAACCTGTTGCCT (site GGGGAAGCTAG) | 1.73
GATTTCTCTTGGGTTCTAACCTGTTGCCT (site AATTTCTCTAG) | 0.104
GCTGGGTCTTGGGTTCTAACCTGTTGCTT (site GCTGGGTCTAA) | 1.65
TCACTAGCTTGGGTTCTAACCTGTTGCCT (site TCACTAGCTAG) | 0.0596
CTATGTGCTTGGGTTCTAACCTGTTGCTT (site CTATGTGCTAA) | 0.337
ACGTGGCCTTGGGTTCTAACCTGTTGCTG (site ACGTGGCCTCA) | 1.05
GTGTACCCTTGGGTTCTAACCTGTTGCGT (site GTGTACCCTGC) | 2.29
ATTAACCCTTGGGTTCTAACCTGTTGCCT (site ATTAACCCTAG) | 1.21
CTAAGTCCTTGGGTTCTAACCTGTTGCAT (site CTAAGTCCTAT) | 1.34
AAAATCTCTTGGGTTCTAACCTGTTGCCT (site AAACTCGCTAG) | 0.113
ACTTGTTCTTGGGTTCTAACCTGTTGCCT (site CCTTGTTCTAG) | 0.202
CCTGCGACTTGGGTTCTAACCTGTTGCAC (site AAGCACCCTCA) | 0.185
GAGGGTCCTTGGGTTCTAACCTGTTGCAT (site GAGGGTCCTAT) | 2.74
CTGATCCCTTGGGTTCTAACCTGTTGCGG (site CTGGTCCCTCC) | 0.136
CTACTAACTTGGGTTCTAACCTGTTGCCT (site CTACTAACTAG) | 1.3
CTTCAACCTTGGGTTCTAACCTGTTGCCT (site CTTCAACCTAG) | 1.75

Sequence | recombinant barcode read abundance (log10)
AGCAGAGCTTGGGTTCTAACCTGTTGCTG (site AGCAGAGCTCC) | 1.94
AAGACTCCTTGGGTTCTAACCTGTTGCTT (site AAGACTCCTAA) | 1.05
TCGAGAGCTTGGGTTCTAACCTGTTGCTA (site TCGAGAGCTCG) | 0.183
TATTGGACTTGGGTTCTAACCTGTTGCAA (site TATTGGACTGT) | 0.0217
TTACTCTCTTGGGTTCTAACCTGTTGCCT (site TTACTCTCTAG) | 2.13
TAGGACGCTTGGGTTCTAACCTGTTGCCT (site TATGACGCTAG) | 0.286
AATACTACTTGGGTTCTAACCTGTTGCCT (site AATACTACTAG) | 1.04
GACCGAGCTTGGGTTCTAACCTGTTGCCT (site GACCGTGCTAG) | 0.345
TCACTAGCTTGGGTTCTAACCTGTTGCCT (site TTACGAGCTAG) | 0
AGTTCACCTTGGGTTCTAACCTGTTGCTA (site GAGGGCTCTCC) | 0.314
TGGTATGCTTGGGTTCTAACCTGTTGCCT (site TGGTATACTAG) | 0.5
CGATGACCTTGGGTTCTAACCTGTTGCAT (site CGATGACCTAT) | 1.48
CGTCCACCTTGGGTTCTAACCTGTTGCCT (site TGTCCACCTAG) | 0.245
ACGAGTCCTTGGGTTCTAACCTGTTGCCT (site ACGAGTCCTAG) | 1.36
TCACAGACTTGGGTTCTAACCTGTTGCCG (site GTTAGCCCTAT) | 0.11
CTAGAGTCTTGGGTTCTAACCTGTTGCTT (site CTAGCGTCTAA) | 0.0496
AGGGGAGCTTGGGTTCTAACCTGTTGCCT (site AGGGTAGCTAG) | 0.315
CGGTCTACTTGGGTTCTAACCTGTTGCCT (site CTGTCTACTAG) | 0.0592

Reference: the supplement of paper PMC11208160
